Test results from the supplement of paper PMC8671470.

How the values were obtained:
Settings in all cases: 72 h
K-562 [1] = assay: cell viability (% survival relative to DMSO control, bortezomib = 0%); higher = less cytotoxic
Summary of the method: (§1)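 Percent survival is reported as the mean of duplicate wells. Cells from 10 AML and 5 CML lines were plated in 384-well plates containing compounds at 1, 10, 100, 1000 or 10000 nM and kept for 72 h at 37 °C in 5% CO2. Readout used CellTiter-Glo luminescence, scaled so that vehicle equals 100% and a 10 µM positive control equals 0%.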

MOLM-13 [2] = assay: as above
Summary of the method: as §1

KG-1 [3] = assay: as above
Summary of the method: as §1

HEL [4] = assay: as above
Summary of the method: as §1

HL-60 [5] = assay: as above
Summary of the method: as §1

SHI-1 [6] = assay: as above
Summary of the method: as §1

BV-173 = system: BV-173
Summary of the method: (§2)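 Fifteen myeloid leukaemia cell lines were seeded in RPMI 1640 at densities titrated to the linear growth range and placed in 384-well plates with acoustically pre-printed compounds at five tenfold doses from 1 to 10,000 nM, in duplicate. After 72 h at 37 °C with 5% CO2, luminescent ATP viability was normalised to vehicle and to a positive control at 10 µM, and curves were fitted with a four-parameter log-logistic model. The IC50 was obtained from these fits.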

LAMA-84 = system: LAMA-84
Summary of the method: as §2

MV4-11 = system: MV4-11
Summary of the method: as §2

Mono-Mac-6 = system: Mono-Mac-6
Summary of the method: as §2

ML-2 = system: ML-2
Summary of the method: as §2

KCL-22 = system: KCL-22
Summary of the method: as §2

NOMO-1 = system: NOMO-1
Summary of the method: as §2

KU-812 = system: KU-812
Summary of the method: as §2

THP-1 = system: THP-1
Summary of the method: as §2

K-562 [7] = system: K-562
Summary of the method: as §2

MOLM-13 [8] = system: MOLM-13
Summary of the method: as §2

KG-1 [9] = system: KG-1
Summary of the method: as §2

HEL [10] = system: HEL
Summary of the method: as §2

HL-60 [11] = system: HL-60
Summary of the method: as §2

SHI-1 [12] = system: SHI-1
Summary of the method: as §2

CCCCC/C=C\C/C=C\C/C=C\C/C=C\CCCC(=O)C(F)(F)F [Arachidonyl trifluoromethyl ketone]
cell viability [%]
Settings	HEL [4]	HL-60 [5]	K-562 [1]	KG-1 [3]	MOLM-13 [2]	SHI-1 [6]
1 nM	97.5	98.9	101	90.8	103	99
10 nM	89.6	100	96.1	102	74	101
100 nM	118	108	104	92.6	85.8	103
1000 nM	98.8	93.9	96.8	90	102	96.9
10000 nM	80.8	96.5	90.6	47.7	86.4	104

Settings	IC50 (cell viability) [µM]
BV-173	> 10
HEL [10]	> 10
HL-60 [11]	> 10
K-562 [7]	> 10
KCL-22	> 10
KG-1 [9]	> 10
KU-812	> 10
LAMA-84	> 10
ML-2	> 10
MOLM-13 [8]	> 10
MV4-11	> 10
Mono-Mac-6	7.99
NOMO-1	> 10
SHI-1 [12]	> 10
THP-1	> 10
